# Laboratory results reported in patent US20250179167A1, “IL-6 INHIBITOR AS TREATMENT FOR NEPHROPATHY” (YALE UNIVERSITY, priority 2022, published 2025).
# Assays:
# Assay type in all cases: in vivo, mouse
# [1] = test system: UUO mice; test: Wnt inhibitor (LGK974) treatment in UUO mice, renal histology, GR and β-catenin
# Protocol: FIG. 24A-24J show inhibition of Wnt signaling abolished the fibrogenic phenotype in mice. (FIG. 24A) Immunohistochemical analysis of -catenin expression in the kidneys of control and diabetic CD-1 and C57BL/6 mice. n=8 biologically independent mice/group combined from two independent experiments were evaluated. Scale bar 50 μm. Representative images are shown; original magnification 200×. (FIG. 24B) Relative mRNA expression determined by qRT-PCR of Axin2, Tcf and fibronectin, in kidneys of control and diabetic CD-1 and C57BL/6 mice. n=6 biologically independent mice/group combined from two experiments were evaluated. Expression was normalized to the internal control 18S. (FIG. 24C) Schematic diagram representing the treatment protocol of Wnt inhibitor (LGK974; 5 mg/kg body weight) in diabetic CD-1 mice and (FIG. 24D) in UUO mice. (FIG. 24E) Masson trichrome and Sirius red staining in the kidneys of diabetic and Wnt inhibitor-treated diabetic CD-1 mice. Representative images (original magnification 300×) are shown. Relative area of fibrosis (%) and relative collagen deposition (%) were measured using the ImageJ program. n=8 biologically independent mice/group combined from two experiments were evaluated. Scale bar 50 μm. (FIG. 24F) Masson trichrome and Sirius red staining in the kidneys of UUO and Wnt inhibitor-treated UUO mice. Representative images (original magnification 300×) are shown. Relative area of fibrosis (%) and relative collagen deposition (%) were measured using the ImageJ program. n=8 biologically independent mice/group combined from two experiments were evaluated. Scale bar 50 μm. (FIGS. 24G-24H) GR protein levels in CD31-positive cells were analyzed by immunofluorescence in the kidneys of Wnti-treated diabetic mice and Wnti-treated UUO mice. FITC-labeled GR, rhodamine-labeled CD31 and DAPI were used. Merged images and representative pictures are shown; original magnification 300×. n=7 biologically independent mice/group combined from four experiments were evaluated. Scale bar 50 μm. (FIGS. 24I-24J) Immunohistochemical analysis of active -catenin expression in Wnti-treated diabetic mice and Wnti-treated UUO mice. n=7 biologically independent mice/group combined from three experiments were evaluated. Scale bar 30 μm. Data are mean SEM. In all panels, one-way Anova with Tukey multiple comparison post hoc test was used to calculate statistical significance. Significance—*p<0.05, **p<0.01, ***p<0.001.
# Mouse model of unilateral ureteral obstruction (UUO). UUO surgical procedure was performed as previously described^19. Briefly, mice were anesthetized with isoflurane (3%-5% for induction and 1%-3% for maintenance). Mice were shaved on the left side of the abdomen, a vertical incision was made through the skin with a scalpel, and the skin was retracted. A second incision was made through the peritoneum to expose the kidney. The left ureter was ligated twice […] below the renal pelvis with surgical silk, and the ureter was then severed between the 2 ligatures. Then, the ligated kidney was placed gently back into its correct anatomical position, and sterile saline was added to replenish loss of fluid. The incisions were sutured and mice were individually caged. Buprenorphine was used as an analgesic. The first dose was administered 30 minutes before surgery and then every 12 h for 72 h, at a dose of 0.05 mg/kg subcutaneously. Mice were sacrificed and kidney and blood samples were harvested after perfusion with PBS at 10 days after UUO. Contralateral kidneys were used as a nonfibrotic control for all experiments using this model.
# Morphological Evaluation. A point-counting method was utilized to evaluate the relative area of the mesangial matrix. The inventors analyzed PAS-stained glomeruli from each mouse using a digital microscope screen grid containing 540 (27×20) points. Masson's trichrome-stained images were evaluated by ImageJ software, and the fibrotic areas were estimated.
# Sirius red staining. […]
# [2] = test system: diabetic CD-1 mice; test: Plasma cytokine array (Luminex) in diabetic CD-1 mice with and without Wnti treatment
# Protocol: Plasma cytokines and chemokines were measured in diabetic CD-1 mice with and without Wnti treatment by using a cytokine array analysis (Luminex). n=5 biologically independent mice/group. Data are mean±SEM. Student's-test (unpaired two-tailed) was used for analysis of statistical significance. Significance—*p<0.05. In one experiment, male mice were randomized to one of 4 groups sixteen weeks after induction of diabetes: (i) untreated, (ii) fenofibrate (100 mg/kg), (iii) simvastatin (40 mg/kg), or (iv) Wnt inhibitor (LGK974; 5 mg/kg). In each case, mice were treated for 4 weeks and compared to untreated diabetic CD-1 mice. In another experiment, male diabetic CD-1 mice were randomized into one of 3 groups: (i) untreated (vehicle), (ii) etomoxir (20 mg/kg) or (iii) C75 (15 mg/kg); in each case mice were treated (IP) three times/week for a total 4 weeks.
# [3] = test system: ECs from CD-1 mice; test: Fatty acid uptake ([14C]palmitate uptake) in isolated kidney endothelial cells
# Protocol: (FIG. 31A) Fatty acid uptake was measured as [^14C]palmitate uptake. […] [^14C]palmitate was used as substrate and CPM counts were normalized to protein. In both cases, endothelial cells isolated from n=5 biologically independent mice/group were analyzed in triplicate. Data are mean±SEM. One-way Anova with Tukey multiple comparison post hoc test was used to calculate statistical significance. Significance—*p<0.05, **p<0.01, ***p<0.001. Fatty acid uptake. Cultured isolated kidney endothelial cells were incubated with medium containing 2 μCi [^14C]-palmitate. [^14C]-palmitate uptake was measured by liquid scintillation counting.
structure (smiles),measurement,setting,value
Cc1cc(-c2ncc(CC(=O)Nc3ccc(-c4cnccn4)cn3)cc2C)ccn1 [LGK974],ECM deposition,[1]; 5 mg/kg,greatly diminished
same,collagen accumulation,[1]; 5 mg/kg,greatly diminished
same,glomerulosclerosis,[1]; 5 mg/kg,greatly diminished
same,relative area of fibrosis,[1]; 5 mg/kg,greatly diminished
same,level of β-catenin,[1]; kidney immunohistochemistry,suppressed the level of β-catenin
same,endothelial GR,"[1]; kidney, GR in CD31-positive cells",substantially restored endothelial GR
same,plasma CCL4 level,[2],significantly suppressed
same,plasma CCL5 level,[2],increasing
same,plasma G-CSF level,[2],significantly suppressed
same,plasma IL-1β level,[2],significantly suppressed
same,plasma IL-6 level,[2],significantly suppressed
same,plasma IL-10 level,[2],significantly suppressed
same,plasma MCP-1 level,[2],significantly suppressed
same,plasma TNFα level,[2],significantly suppressed
same,FA uptake ([14C]palmitate uptake),[3],suppressed FA uptake
